The test has as its target T1, Growth hormone-releasing hormone receptor (Rattus norvegicus) (UniProt Q02644).
T1 sequence (whole entry): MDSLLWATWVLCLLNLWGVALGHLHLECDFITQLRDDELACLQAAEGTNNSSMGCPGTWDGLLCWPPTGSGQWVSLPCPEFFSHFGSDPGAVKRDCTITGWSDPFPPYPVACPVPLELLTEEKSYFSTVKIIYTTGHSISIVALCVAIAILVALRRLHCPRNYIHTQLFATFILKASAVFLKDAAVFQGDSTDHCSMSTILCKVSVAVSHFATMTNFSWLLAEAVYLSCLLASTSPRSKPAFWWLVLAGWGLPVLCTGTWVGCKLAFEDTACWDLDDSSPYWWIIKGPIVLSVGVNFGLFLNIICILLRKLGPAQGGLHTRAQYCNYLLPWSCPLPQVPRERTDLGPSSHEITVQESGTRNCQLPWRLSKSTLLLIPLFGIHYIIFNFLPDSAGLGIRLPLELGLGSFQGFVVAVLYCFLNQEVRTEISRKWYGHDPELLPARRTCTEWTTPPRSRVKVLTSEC
The test is described as follows: Potency for growth hormone releasing hormone receptor (GHRFR) relative to human GHRH(1-40)OH- in the rat pituitary cell culture assay. The class given is functional, cell-based. The following applies: Pituitary gland cell.
`CCCC[C@H]1NC(=O)[C@H]([C@@H](C)CC)NC(=O)[C@@H](NC(=O)[C@H](Cc2c[nH]cn2)NC(=O)[C@H](CC(C)C)NC(=O)[C@H](CC(C)C)NC(=O)[C@H](CCCCN)NC(=O)[C@H](CCCN=C(N)N)NC(=O)[C@H](Cc2ccccc2)NC(=O)[C@@H](NC(=O)[C@H](CC(C)C)NC(=O)[C@H](CCC(N)=O)NC(=O)[C@H](C)NC(=O)[C@H](CC(C)C)NC(=O)[C@@H](NC(=O)[C@H](CCCN=C(N)N)NC(=O)[C@H](CCCN=C(N)N)NC(=O)[C@H](Cc2ccc(O)cc2)NC(=O)[C@H](CO)NC(=O)[C@H](CO)NC(=O)[C@@H](NC(=O)[C@H](Cc2ccccc2)NC(=O)[C@@H](NC(=O)[C@H](C)NC(=O)[C@H](CC(=O)O)NC(=O)[C@H](C)NC(=O)[C@@](C)(N)Cc2c[nH]cn2)[C@@H](C)CC)[C@@H](C)O)[C@@H](C)CC)[C@@H](C)CC)CSSC[C@@H](C(N)=O)NC(=O)[C@H](CC(N)=O)NC1=O` registered a Relative potency of 1.1. In the case of `CCCC[C@H]1NC(=O)[C@H]([C@@H](C)CC)NC(=O)[C@H](NC(=O)[C@H](CCC(N)=O)NC(=O)[C@H](CC(C)C)NC(=O)[C@H](CC(C)C)NC(=O)[C@H](CCCCN)NC(=O)[C@H](CCCN=C(N)N)NC(=O)[C@H](C)NC(=O)[C@H](CO)NC(=O)[C@H](CC(C)C)NC(=O)[C@H](CCC(N)=O)NC(=O)[C@H](C)NC(=O)[C@H](CC(C)C)NC(=O)[C@@H](NC(=O)[C@H](CCCCN)NC(=O)[C@H](CCCN=C(N)N)NC(=O)[C@H](Cc2ccc(O)cc2)NC(=O)[C@H](CO)NC(=O)[C@H](CC(N)=O)NC(=O)[C@@H](NC(=O)[C@H](Cc2ccccc2)NC(=O)[C@@H](NC(=O)[C@H](C)NC(=O)[C@H](CC(=O)O)NC(=O)[C@H](C)NC(=O)[C@@](C)(N)Cc2ccc(O)cc2)[C@@H](C)CC)[C@@H](C)O)C(C)C)CCC(=O)NCC[C@H](C(N)=O)NC(=O)[C@H](CO)NC1=O` it was 10.7. The value for `CC[C@@H](C)[C@@H](NC(=O)[C@@H](C)NC(=O)[C@@H](CC(=O)O)NC(=O)[C@@H](C)NC(=O)[C@H](N)Cc1ccc(O)cc1)C(=O)N[C@H](Cc1ccccc1)C(=O)N[C@@H]1CCC(=O)NCCCC[C@@H](C(=O)N[C@@H](CCCN=C(N)N)C(=O)N[C@@H](CCCCN)C(=O)N[C@H](C(=O)N[C@@H](CC(C)C)C(=O)NCC(=O)N[C@@H](CCC(N)=O)C(=O)N[C@@H](CC(C)C)C(=O)N[C@@H](CO)C(=O)N[C@@H](C)C(=O)N[C@@H](CCCN=C(N)N)C(=O)N[C@@H](CCCCN)C(=O)N[C@@H](CC(C)C)C(=O)N[C@@H](CC(C)C)C(=O)N[C@@H](CCC(N)=O)C(=O)N[C@@H](CC(=O)O)C(=O)N[C@H](C(=O)N[C@@H](CCSC)C(=O)N[C@@H](CO)C(=O)N[C@@H](CCCN=C(N)N)C(N)=O)[C@@H](C)CC)C(C)C)NC(=O)[C@H](CO)NC(=O)[C@@H](CC(N)=O)NC1=O` was 0.008; that for `CC[C@@H](C)[C@@H](NC(=O)[C@@H](CC(=O)O)NC(=O)[C@@H](CCC(N)=O)NC(=O)[C@@H](CC(C)C)NC(=O)[C@H]1CCCCNC(=O)CC[C@H](NC(=O)[C@H](CO)NC(=O)[C@H](CC(C)C)NC(=O)[C@H](CCC(N)=O)NC(=O)CNC(=O)[C@H](CC(C)C)NC(=O)[C@@H](NC(=O)[C@H](CCCCN)NC(=O)[C@H](CCCN=C(N)N)NC(=O)[C@H](Cc2ccc(O)cc2)NC(=O)[C@H](CO)NC(=O)[C@H](CC(N)=O)NC(=O)[C@@H](NC(=O)[C@H](Cc2ccccc2)NC(=O)[C@@H](NC(=O)[C@H](C)NC(=O)[C@H](CC(=O)O)NC(=O)[C@H](C)NC(=O)[C@@H](N)Cc2ccc(O)cc2)[C@@H](C)CC)[C@@H](C)O)C(C)C)C(=O)N[C@@H](CCCN=C(N)N)C(=O)N[C@H](CCCCN)C(=O)N1)C(=O)N[C@@H](CCSC)C(=O)N[C@@H](CO)C(=O)N[C@@H](CCCN=C(N)N)C(N)=O` was 0.4; that for `CC[C@@H](C)[C@@H](NC(=O)[C@@H](CC(=O)O)NC(=O)[C@H]1CCCCNC(=O)CC[C@H](NC(=O)[C@H](CCCN=C(N)N)NC(=O)[C@H](C)NC(=O)[C@H](CO)NC(=O)[C@H](CC(C)C)NC(=O)[C@H](CCC(N)=O)NC(=O)CNC(=O)[C@H](CC(C)C)NC(=O)[C@@H](NC(=O)[C@H](CCCCN)NC(=O)[C@H](CCCN=C(N)N)NC(=O)[C@H](Cc2ccc(O)cc2)NC(=O)[C@H](CO)NC(=O)[C@H](CC(N)=O)NC(=O)[C@@H](NC(=O)[C@H](Cc2ccccc2)NC(=O)[C@@H](NC(=O)[C@H](C)NC(=O)[C@H](CC(=O)O)NC(=O)[C@H](C)NC(=O)[C@@H](N)Cc2ccc(O)cc2)[C@@H](C)CC)[C@@H](C)O)C(C)C)C(=O)N[C@@H](CC(C)C)C(=O)N[C@H](CC(C)C)C(=O)N1)C(=O)N[C@H](CCSC)C(=O)N[C@H](CO)C(=O)N[C@H](CCCN=C(N)N)C(N)=O` was 4.5. In the case of `CC[C@H](C)[C@H](NC(=O)[C@H](C)NC(=O)[C@H](CC(=O)O)NC(=O)[C@H](C)NC(=O)[C@@H](N)Cc1ccc(O)cc1)C(=O)N[C@@H](Cc1ccccc1)C(=O)N[C@H](C(=O)N[C@@H](CC(N)=O)C(=O)N[C@@H](CO)C(=O)N[C@@H](Cc1ccc(O)cc1)C(=O)N[C@@H](CCCN=C(N)N)C(=O)N[C@@H](CCCCN)C(=O)N[C@H](C(=O)N[C@@H](CC(C)C)C(=O)NCC(=O)N[C@@H](CCC(N)=O)C(=O)N[C@@H](CC(C)C)C(=O)N[C@@H](CO)C(=O)N[C@@H](C)C(=O)N[C@@H](CCCN=C(N)N)C(=O)N[C@@H](CCCCN)C(=O)N[C@@H](CC(C)C)C(=O)N[C@@H](CC(C)C)C(=O)N[C@@H](CCC(N)=O)C(=O)N[C@@H](CC(=O)O)C(=O)N[C@H](C(=O)N[C@@H](CCSC)C(=O)N[C@@H](CO)C(=O)N[C@@H](CCCN=C(N)N)C(=O)N[C@@H](CCC(N)=O)C(=O)N[C@H](CCC(N)=O)C(=O)NCC(=O)N[C@@H](CCC(=O)O)C(=O)N[C@@H](CO)C(=O)N[C@@H](CC(N)=O)C(=O)N[C@@H](CCC(N)=O)C(=O)N[C@@H](CCC(=O)O)C(=O)N[C@@H](CCCN=C(N)N)C(=O)NCC(=O)N[C@@H](C)C(=O)O)[C@@H](C)CC)C(C)C)[C@@H](C)O` it was 1. As for `CC[C@H](C)[C@H](NC(=O)[C@H](C)NC(=O)[C@H](CC(=O)O)NC(=O)[C@H](C)NC(=O)[C@@H](N)Cc1ccc(O)cc1)C(=O)N[C@@H](Cc1ccccc1)C(=O)N[C@H](C(=O)N[C@@H](CC(N)=O)C(=O)N[C@@H](CO)C(=O)N[C@@H](Cc1ccc(O)cc1)C(=O)N[C@@H](CCCN=C(N)N)C(=O)N[C@@H](CCCCN)C(=O)N[C@H](C(=O)N[C@@H](CC(C)C)C(=O)NCC(=O)N[C@@H](CCC(N)=O)C(=O)N[C@@H](CC(C)C)C(=O)N[C@@H]1CCC(=O)NCCCC[C@@H](C(=O)N[C@@H](CC(C)C)C(=O)N[C@@H](CC(C)C)C(=O)N[C@@H](CCC(N)=O)C(=O)N[C@@H](CC(=O)O)C(=O)N[C@H](C(=O)N[C@@H](CCSC)C(=O)N[C@@H](CO)C(=O)N[C@@H](CCCN=C(N)N)C(N)=O)[C@@H](C)CC)NC(=O)[C@H](CCCN=C(N)N)NC(=O)[C@@H](C)NC1=O)C(C)C)[C@@H](C)O`, the Relative potency turned out to be 1.8. The value for `CC[C@H](C)[C@H](NC(=O)[C@H](C)NC(=O)[C@H](CC(=O)O)NC(=O)[C@H](C)NC(=O)[C@@H](N)Cc1ccc(O)cc1)C(=O)N[C@@H](Cc1ccccc1)C(=O)N[C@H](C(=O)N[C@@H](CC(N)=O)C(=O)N[C@@H](CO)C(=O)N[C@@H](Cc1ccc(O)cc1)C(=O)N[C@@H](CCCN=C(N)N)C(=O)N[C@@H](CCCCN)C(=O)N[C@H](C(=O)N[C@@H](CC(C)C)C(=O)NCC(=O)N[C@H]1CCC(=O)NCCCC[C@H](C(=O)N[C@@H](CCCN=C(N)N)C(=O)N[C@@H](CCCCN)C(=O)N[C@@H](CC(C)C)C(=O)N[C@@H](CC(C)C)C(=O)N[C@@H](CCC(N)=O)C(=O)N[C@@H](CC(=O)O)C(=O)N[C@H](C(=O)N[C@@H](CCSC)C(=O)N[C@@H](CO)C(=O)N[C@@H](CCCN=C(N)N)C(N)=O)[C@@H](C)CC)NC(=O)[C@@H](CO)NC(=O)[C@H](CC(C)C)NC1=O)C(C)C)[C@@H](C)O` was 2.8; that for `CC[C@H](C)[C@H](NC(=O)[C@H](C)NC(=O)[C@H](CC(=O)O)NC(=O)[C@H](C)NC(=O)[C@@H](N)Cc1ccc(O)cc1)C(=O)N[C@@H](Cc1ccccc1)C(=O)N[C@H](C(=O)N[C@@H](CC(N)=O)C(=O)N[C@@H](CO)C(=O)N[C@@H](Cc1ccc(O)cc1)C(=O)N[C@@H](CCCN=C(N)N)C(=O)N[C@H]1CCC(=O)NCCCC[C@H](C(=O)N[C@H](CCC(N)=O)C(=O)N[C@H](CC(C)C)C(=O)N[C@H](CO)C(=O)N[C@H](C)C(=O)N[C@@H](CCCN=C(N)N)C(=O)N[C@@H](CCCCN)C(=O)N[C@@H](CC(C)C)C(=O)N[C@@H](CC(C)C)C(=O)N[C@@H](CCC(N)=O)C(=O)N[C@@H](CC(=O)O)C(=O)N[C@H](C(=O)N[C@@H](CCSC)C(=O)N[C@@H](CO)C(=O)N[C@@H](CCCN=C(N)N)C(N)=O)[C@@H](C)CC)NC(=O)[C@@H](CC(C)C)NC(=O)[C@H](C(C)C)NC1=O)[C@@H](C)O` was 1.2; that for `CC[C@H](C)[C@H](NC(=O)[C@H](C)NC(=O)[C@H](CC(=O)O)NC(=O)[C@H](C)NC(=O)[C@@H](N)Cc1ccc(O)cc1)C(=O)N[C@@H](Cc1ccccc1)C(=O)N[C@H](C(=O)N[C@H]1CCC(=O)NCCCC[C@H](C(=O)N[C@@H](CCCCN)C(=O)N[C@H](C(=O)N[C@@H](CC(C)C)C(=O)NCC(=O)N[C@@H](CCC(N)=O)C(=O)N[C@@H](CC(C)C)C(=O)N[C@@H](CO)C(=O)N[C@@H](C)C(=O)N[C@@H](CCCN=C(N)N)C(=O)N[C@@H](CCCCN)C(=O)N[C@@H](CC(C)C)C(=O)N[C@@H](CC(C)C)C(=O)N[C@@H](CCC(N)=O)C(=O)N[C@@H](CC(=O)O)C(=O)N[C@H](C(=O)N[C@@H](CCSC)C(=O)N[C@@H](CO)C(=O)N[C@@H](CCCN=C(N)N)C(N)=O)[C@@H](C)CC)C(C)C)NC(=O)[C@H](Cc2ccc(O)cc2)NC(=O)[C@H](CO)NC1=O)[C@@H](C)O` was 0.014.
